Experiments:
[1] = target: α-glucosidase from Saccharomyces cerevisiae (EC 3.2.1.20) (Saccharomyces cerevisiae, UniProt P53341); experiment: biochemical; format: biochemical; settings: for IC50: mean ± SD, quadruplicate, PBS pH 6.8, 37°C, 5% DMSO, read-out: α-glucosidase inhibition (IC50 μM)
[2] = target: T1, α-amylase from hog pancreas (EC 3.2.1.1) (Sus scrofa, UniProt P00690); experiment: α-amylase inhibition assay (starch, DNS, absorbance at 540 nm)
T1 sequence (P00690 16-511): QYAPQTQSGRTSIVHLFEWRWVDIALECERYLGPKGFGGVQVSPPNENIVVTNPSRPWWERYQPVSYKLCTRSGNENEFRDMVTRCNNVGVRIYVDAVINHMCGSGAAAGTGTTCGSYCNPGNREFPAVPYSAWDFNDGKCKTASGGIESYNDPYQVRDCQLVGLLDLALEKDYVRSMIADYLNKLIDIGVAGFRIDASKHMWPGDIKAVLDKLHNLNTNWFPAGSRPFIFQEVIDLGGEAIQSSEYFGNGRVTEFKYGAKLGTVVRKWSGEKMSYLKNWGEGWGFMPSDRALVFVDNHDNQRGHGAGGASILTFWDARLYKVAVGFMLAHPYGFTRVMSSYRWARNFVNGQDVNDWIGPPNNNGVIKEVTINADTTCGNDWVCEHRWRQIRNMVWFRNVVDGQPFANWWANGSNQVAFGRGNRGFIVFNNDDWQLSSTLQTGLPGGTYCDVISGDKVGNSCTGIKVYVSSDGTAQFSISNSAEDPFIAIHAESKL
Method: All the compounds were dissolved in DMSO, and DMSO working concentration in the enzyme inhibition test was 5%.
Then, 100 μL starch solution (final concentration 0.5%) was added into the mixture and further incubated for 10 min. After 100 μL DNS (containing 1 M potassium sodium tartrate and 48 mM 3,5-dinitrosalicylic acid) was added, the mixture was boiled for 15 min. After diluting using 900 μL distilled water, the absorbance was measured at 540 nm. […] All experiments were carried out in quadruplicate.

3T3-L1 cells = experiment: Cell cytotoxicity assay, 3T3-L1; format: cell-based; settings: under a concentration of 100 μM
α-glucosidase = target: T2, α-glucosidase (Saccharomyces cerevisiae, UniProt P53341); experiment: Inhibition kinetics assay against α-glucosidase; format: biochemical
T2 construct: purchased Sigma-Aldrich
Method: The α-glucosidase inhibition assay of analogs 4a–4s was carried out as in previously reported methods, with minor modifications ([Xu et al., 2020]). Then, 10 μL α-glucosidase and 10 μL test sample (dissolved in DMSO) were added into 130 μL PBS (50 mM phosphate saline buffer, pH 6.8) and incubated for 10 min at 37°C. After adding 50 μL pNPG, the absorbance change of the mixture at 405 nm was monitored. Then, the percent inhibition was calculated ([Ademiluyi and Oboh, 2013]). All experiments were carried out in quadruplicate.
(§1) The inhibition kinetics of 4i and 4o against α-glucosidase and α-amylase, respectively, was investigated using a similar aforementioned inhibition assay method. The enzyme inhibitory kinetics was obtained by the plots of the enzymatic reaction rate vs. enzyme concentration with or without the inhibitor, and the substrate inhibitory kinetics was measured using the Lineweaver–Burk plot of the enzymatic reaction rate vs. substrate concentration with or without the inhibitor.

HepG2 cells = experiment: Cell cytotoxicity assay, HepG2; format: cell-based; settings: under a concentration of 100 μM
α-amylase = target: T3, α-amylase (Sus scrofa, UniProt P00690); experiment: Inhibition kinetics assay against α-amylase; format: biochemical, hog
T3 construct: α-amylase from hog pancreas (EC 3.2.1.1); purchased Sigma-Aldrich; host or cells: hog pancreas
T3 sequence (P00690 16-511): T1 sequence (P00690 16-511)
Method: All experiments were carried out in quadruplicate.
as §1

[3] = plots of enzymatic reaction rate vs. enzyme concentration pass through the origin

α-glucosidase from Saccharomyces cerevisiae (EC 3.2.1.20), sequence (P53341 whole entry): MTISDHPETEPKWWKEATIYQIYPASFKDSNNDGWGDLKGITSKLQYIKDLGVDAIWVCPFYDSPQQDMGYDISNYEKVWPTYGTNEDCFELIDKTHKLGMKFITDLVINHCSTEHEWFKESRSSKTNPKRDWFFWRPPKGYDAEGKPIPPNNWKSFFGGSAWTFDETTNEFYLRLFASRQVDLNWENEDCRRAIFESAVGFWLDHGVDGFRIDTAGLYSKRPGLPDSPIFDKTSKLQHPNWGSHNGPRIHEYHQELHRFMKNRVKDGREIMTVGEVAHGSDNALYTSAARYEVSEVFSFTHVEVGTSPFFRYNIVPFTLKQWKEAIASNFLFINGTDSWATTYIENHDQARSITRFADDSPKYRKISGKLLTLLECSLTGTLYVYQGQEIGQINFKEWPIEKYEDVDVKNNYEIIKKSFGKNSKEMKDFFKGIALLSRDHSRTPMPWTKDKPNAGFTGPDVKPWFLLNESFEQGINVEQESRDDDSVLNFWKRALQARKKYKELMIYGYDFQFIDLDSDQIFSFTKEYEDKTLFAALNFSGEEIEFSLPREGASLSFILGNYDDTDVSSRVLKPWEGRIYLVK
T2 sequence (P53341 whole entry): as above

With `CC1(C)CC[C@]2(C(=O)O)CC[C@]3(C)C(=CCC4[C@@]5(C)C/C(=C\c6ccccc6[N+](=O)[O-])[C@H](O)C(C)(C)C5CC[C@]43C)C2C1` (some centres unmarked) [Compound 4q] the IC50 [1] was 1.17 ± 0.1 µM, the IC50 [2] was 20.2 ± 1.2 µM and the melting point was 197 to 198 °C.

In the case of `CC1(C)CC[C@]2(C(=O)O)CC[C@]3(C)C(=CCC4[C@@]5(C)C/C(=C\c6ccc(F)cc6)[C@H](O)C(C)(C)C5CC[C@]43C)C2C1` (some centres unmarked) [Compound 4j], the IC50 [1] is reported as 1.23 ± 0.07 µM, the IC50 [2] is reported as 15.7 ± 1.53 µM and the melting point is reported as 226 to 227 °C.

`CC1(C)CC[C@]2(C(=O)O)CC[C@]3(C)C(=CCC4[C@@]5(C)C/C(=C\c6ccc(Cl)cc6)[C@H](O)C(C)(C)C5CC[C@]43C)C2C1` (some centres unmarked) [Compound 4m] gave an IC50 [1] of 1.73 ± 0.16 µM, an IC50 [2] of 20.5 ± 1.09 µM and a melting point of 196 to 197 °C.

For `CC1(C)CC[C@]2(C(=O)O)CC[C@]3(C)C(=CCC4[C@@]5(C)C/C(=C\c6cccc(F)c6)[C@H](O)C(C)(C)C5CC[C@]43C)C2C1` (some centres unmarked) [Compound 4i], the “α-glucosidase inhibition, times stronger than acarbose” value [1] was ~1,663 times, the IC50 [1] was 0.4 ± 0.02 µM and the IC50 [2] was 20.3 ± 2.18 µM. For the same compound, the melting point was 157 to 158 °C, the “Cell cytotoxicity against 3T3-L1 cells” value (3T3-L1 cells) was “non-cytotoxic effect” and the “Inhibition type against α-glucosidase” value (α-glucosidase; Lineweaver–Burk plots, lines intersect in the second quadrant) was “mixed-type inhibitor”. The “Reversibility of inhibition on α-glucosidase” value (α-glucosidase; [3]) was “reversible” and the “Cell cytotoxicity against HepG2 cells” value (HepG2 cells) was “non-cytotoxic effect”.

Compound `Cc1cccc(/C=C2\C[C@@]3(C)C(CC[C@]4(C)C3CC=C3C5CC(C)(C)CC[C@]5(C(=O)O)CC[C@]34C)C(C)(C)[C@H]2O)c1` (some centres unmarked) [Compound 4c] has an IC50 [1] of 0.86 ± 0.05 µM, an IC50 [2] of 51.1 ± 2.55 µM and a melting point of 128 to 129 °C.

For `CC1(C)CCC2(C(=O)O)CCC3(C)C(=CCC4C5(C)CC(=Cc6cccc(Br)c6)C(O)C(C)(C)C5CCC43C)C2C1` (centres unmarked) [Compound 4o], the IC50 [1] was 0.52 ± 0.02 µM, the IC50 [2] was 9.59 ± 0.58 µM and the melting point was 197 to 198 °C. For the same compound, the “Cell cytotoxicity against 3T3-L1 cells” value (3T3-L1 cells) was “non-cytotoxic effect”, the “Inhibition type against α-amylase” value (α-amylase; Lineweaver–Burk plots, lines intersect in the first quadrant) was “mixed-type inhibitor” and the “Reversibility of inhibition on α-amylase” value (α-amylase; [3]) was “reversible”. The “Cell cytotoxicity against HepG2 cells” value (HepG2 cells) was “non-cytotoxic effect”.

In the case of `CC1(C)CC[C@]2(C(=O)O)CC[C@]3(C)C(=CCC4[C@@]5(C)C/C(=C\c6ccc([N+](=O)[O-])cc6)[C@H](O)C(C)(C)C5CC[C@]43C)C2C1` (some centres unmarked) [Compound 4s], the IC50 [1] is reported as 1.22 ± 0.14 µM, the IC50 [2] is reported as 55.6 ± 2.52 µM and the melting point is reported as 219 to 220 °C.

`COc1ccccc1/C=C1\C[C@@]2(C)C(CC[C@]3(C)C2CC=C2C4CC(C)(C)CC[C@]4(C(=O)O)CC[C@]23C)C(C)(C)[C@H]1O` (some centres unmarked) [Compound 4e] showed an IC50 [1] of 1.92 ± 0.13 µM, an IC50 [2] of 20.5 ± 2.29 µM and a melting point of 200 to 201 °C.

Compound `CC1(C)CC[C@]2(C(=O)O)CC[C@]3(C)C(=CCC4[C@@]5(C)C/C(=C\c6ccccc6Cl)[C@H](O)C(C)(C)C5CC[C@]43C)C2C1` (some centres unmarked) [Compound 4k] has an IC50 [1] of 0.88 ± 0.04 µM, an IC50 [2] of 45.4 ± 2.16 µM and a melting point of 219 to 220 °C.

For `COc1ccc(/C=C2\C[C@@]3(C)C(CC[C@]4(C)C3CC=C3C5CC(C)(C)CC[C@]5(C(=O)O)CC[C@]34C)C(C)(C)[C@H]2O)cc1` (some centres unmarked) [Compound 4g], the IC50 [1] was 3.96 ± 0.21 µM, the IC50 [2] was 59.1 ± 1.98 µM and the melting point was 296 to 297 °C.

In the case of `CC1(C)CC[C@]2(C(=O)O)CC[C@]3(C)C(=CCC4[C@@]5(C)C/C(=C\c6ccccc6)[C@H](O)C(C)(C)C5CC[C@]43C)C2C1` (some centres unmarked) [Compound 4a], the IC50 [1] is reported as 1.9 ± 0.31 µM and the IC50 [2] is reported as 41.2 ± 2.99 µM.

Compound `CC1(C)CC[C@]2(C(=O)O)CC[C@]3(C)C(=CCC4[C@@]5(C)C/C(=C\c6ccccc6Br)[C@H](O)C(C)(C)C5CC[C@]43C)C2C1` (some centres unmarked) [Compound 4n] has an IC50 [1] of 0.72 ± 0.06 µM, an IC50 [2] of 16.8 ± 1.04 µM and a melting point of 234 to 235 °C.

`CC1(C)CC[C@]2(C(=O)O)CC[C@]3(C)C(=CCC4[C@@]5(C)C/C(=C\c6cccc(Cl)c6)[C@H](O)C(C)(C)C5CC[C@]43C)C2C1` (some centres unmarked) [Compound 4l] gave an IC50 [1] of 0.45 ± 0.02 µM, an IC50 [2] of 19.4 ± 0.73 µM and a melting point of 242 to 243 °C.

In the case of `CC1(C)CC[C@]2(C(=O)O)CC[C@]3(C)C(=CCC4[C@@]5(C)C/C(=C\c6ccccc6F)[C@H](O)C(C)(C)C5CC[C@]43C)C2C1` (some centres unmarked) [Compound 4h], the IC50 [1] is reported as 0.83 ± 0.04 µM, the IC50 [2] is reported as 18.5 ± 1.39 µM and the melting point is reported as 165 to 166 °C.

Work on `Cc1ccccc1/C=C1\C[C@@]2(C)C(CC[C@]3(C)C2CC=C2C4CC(C)(C)CC[C@]4(C(=O)O)CC[C@]23C)C(C)(C)[C@H]1O` (some centres unmarked) [Compound 4b] yielded an IC50 [1] of 0.61 ± 0.09 µM, an IC50 [2] of 19.8 ± 1.22 µM and a melting point of 210 to 211 °C.

With `Cc1ccc(/C=C2\C[C@@]3(C)C(CC[C@]4(C)C3CC=C3C5CC(C)(C)CC[C@]5(C(=O)O)CC[C@]34C)C(C)(C)[C@H]2O)cc1` (some centres unmarked) [Compound 4d] the IC50 [1] was 2.41 ± 0.08 µM, the IC50 [2] was 62.2 ± 1.89 µM and the melting point was 146 to 147 °C.

Compound `CC1(C)CC[C@]2(C(=O)O)CC[C@]3(C)C(=CCC4[C@@]5(C)C/C(=C\c6cccc([N+](=O)[O-])c6)[C@H](O)C(C)(C)C5CC[C@]43C)C2C1` (some centres unmarked) [Compound 4r] has an IC50 [1] of 1.08 ± 0.04 µM, an IC50 [2] of 20.8 ± 1.88 µM and a melting point of 191 to 192 °C.

Work on `COc1cccc(/C=C2\C[C@@]3(C)C(CC[C@]4(C)C3CC=C3C5CC(C)(C)CC[C@]5(C(=O)O)CC[C@]34C)C(C)(C)[C@H]2O)c1` (some centres unmarked) [Compound 4f] yielded an IC50 [1] of 1.63 ± 0.1 µM, an IC50 [2] of 60.3 ± 1.88 µM and a melting point of 200 to 201 °C.

For `CC1(C)CC[C@]2(C(=O)O)CC[C@]3(C)C(=CCC4[C@@]5(C)C/C(=C\c6ccc(Br)cc6)[C@H](O)C(C)(C)C5CC[C@]43C)C2C1` (some centres unmarked) [Compound 4p], the IC50 [1] was 1.18 ± 0.14 µM, the IC50 [2] was 19.5 ± 1.85 µM and the melting point was 224 to 225 °C.
